Results: patent US6482799B1, “Self-preserving multipurpose ophthalmic solutions incorporating a polypeptide antimicrobial” (The Regents of the University of California, priority 1999, dated 2002)

Columns and labels:
[1] = test system: P. aeruginosa (ATCC 9027); experiment: Protocol 3 time-dependent antimicrobial activity at one dose level; format: cell-based, Pseudomonas aeruginosa
Protocol: (§1) The objective of this protocol is to establish a procedure for determining the antimicrobial activity of indolicidin (e.g., L-IND) at 50 μg/ml over an extended exposure time up to 24 hours at room temperature. It is believed that this procedure more closely mimics the recommended use of lens-care products.
(§2) Exposure of the test organism to indolicidin occurs in a buffered solution for up to 24 hours with sampling for viability at different time intervals. Polypropylene 96-well microtiter plates and microcentrifuge tubes are used for exposure and dilution of indolicidin, respectively.
(§3) The following materials are used: sterile glass tubes containing 5 ml of Mueller-Hinton Broth (MHB), Mueller-Hinton agar plates, sterile 96-well polypropylene microtiter plates, and sterile polypropylene microcentrifuge tubes.
(§4) One or more of the following microorganisms are used in assays using this protocol or modification of this protocol: Pseudomonas aeruginosa (ATCC 9027), Pseudomonas aeruginosa (ATCC 27853), and S. aureus (ATCC 6538).
Five 5 ml of MHB tubes are innoculated with the tester strain(s) from MHA plates and grown overnight at 37° C. on a shaker (180 rpm). A micropipet tip is prewet for at least 2 minutes with 100 μl of the stock solution of indolicidin (e.g., L-IND). The test article is dispensed back in the stock solution vial and the pipette is reset to a volume of 10 μl. Polypropylene microcentrifuge tubes are used to dilute the stock of indolicidin (10 mg/ml) 10-fold in sterile water. To obtain a 10× solution of indolicidin with a dose level equivalent to 50 μg/ml dose level dilute 10 μl of the stock solution of indolicidin in 90 μl of sterile water. (The concentration of indolicidin in the final exposure volume of […] will be 5 μg when 10 μl of the 10× solution is added to 100 μl of bacterial suspension). The overnight cultures are washed twice in sterile saline and resuspend in appropriate buffer. The washed culture is diluted in the appropriate buffer to give an estimated 10^6 CFU/ml. Then 10 μl of the 10× test peptide dilutions are added to a predetermined number of wells in the polypropylene microtiter plate. 100 μl of the bacterial suspension is dispensed to the wells in the polypropylene microtiter plate containing the test chemical and mixed well. Controls include one well each for negative controls, i.e., bacteria only sampled at the initiation of the experiment and at the completion of the experiment. The microtiter plate is covered with aluminum foil to shield the exposure mixture from direct light and placed on the bench top at room temperature. At the end of each time interval, the mixture is diluted in an appropriate sterile buffer and plated for viable counts.
Survival is determined by counting the colonies appearing on plates after overnight incubation at 37° C. The results are expressed as CFU/ml and survival is expressed as the percent of the bacteria that survived the treatment.
The purpose of this experiment was to repeat Experiment 4 under identical conditions using P. aeruginosa 9027, with the exception of one additional time point of 60 minutes. The culture was washed 2 times in 10 mM sodium phosphate buffer, pH 7.4.
Protocol 3 was used with the modifications described above. The test organism was P. aeruginosa 9027. L-indolicidin was tested at 50 μg/ml only. Sterile water was used as a solvent for L-IND. 10 mM sodium phosphate buffer, pH 7.4 was used as a vehicle for exposure of bacteria to L-IND. Final incubation volume in polypropylene microtiter plates was 110 μl, and incubation times were 0, 1, 2, 5 and 15 and 60 minutes at room temperature.
This experiment was a repeat of Experiment 6 using the same exposure protocol, but with a prolonged exposure time, namely 24 hours, and using washed cells of an 18-hour old overnight culture of P. aeruginosa inoculated in Mueller-Hinton broth. Incubation times were 0 and 24 hours, at room temperature. […]

[2] = test system: P. aeruginosa (ATCC 27853); experiment: as above; format: cell-based, Pseudomonas aeruginosa; settings: for Bacterial growth, Buffer and L-indolicidin 50 μg/ml: 100 mM sodium phosphate buffer
Protocol: as §1, §2, §3, §4
Five 5 ml of MHB tubes are innoculated with the tester strain(s) from MHA plates and grown overnight at 37° C. on a shaker (180 rpm). A micropipet tip is prewet for at least 2 minutes with 100 μl of the stock solution of indolicidin (e.g., L-IND). The test article is dispensed back in the stock solution vial and the pipette is reset to a volume of 10 μl. Polypropylene microcentrifuge tubes are used to dilute the stock of indolicidin (10 mg/ml) 10-fold in sterile water. To obtain a 10× solution of indolicidin with a dose level equivalent to 50 μg/ml dose level dilute 10 μl of the stock solution of indolicidin in 90 μl of sterile water. (The concentration of indolicidin in the final exposure volume of 100 μl will be 5 μg when 10 μl of the 10× solution is added to 100 μl of bacterial suspension). […]
Survival is determined by counting the colonies appearing on plates after overnight incubation at 37° C. The results are expressed as CFU/ml and survival is expressed as the percent of the bacteria that survived the treatment. […]

[3] = Toxicity study, topical ocular administration
Protocol: The objective of this study was to determine if the treatment regimen proposed for the efficacy study of the defensin formulations caused target organ toxicity. This study is not intended to support application for research or marketing permits for products regulated by governmental agencies. The purpose of this study is to provide range-finding data is therefore, not within the scope of Good Laboratory Practice Guidelines.
Rabbits were treated four times on Day 1 at ˜1 hour intervals, and twice daily at ˜12 hour intervals administered on Days 2 through 4.
Dosing volumes were 0.1 mL/mouse (intravaginal), 0.1 mL/mouse (intraperitoneal), and 20 μL/rabbit. The study lasted 5 days, with day 1 the first day of dose administration.
The dose formulations were supplied in pyrogen-free saline.

[4] = 4.97 mg dry powder
Protocol: 4.97 mg of L-IND #036752, stored at 4° C. in a desiccation) was weighed into a polypropylene microfuge and dissolved in 0.01% acetic acid.

[5] = 50 μg/ml, 100 mM sodium phosphate buffer pH 7.4, all time points 0-24 hours

SMILES: CC[C@H](C)[C@H](N)C(=O)N[C@@H](CC(C)C)C(=O)N1CCC[C@H]1C(=O)N[C@@H](Cc1c[nH]c2ccccc12)C(=O)N[C@@H](CCCCN)C(=O)N[C@@H](Cc1c[nH]c2ccccc12)C(=O)N1CCC[C@H]1C(=O)N[C@@H](Cc1c[nH]c2ccccc12)C(=O)N[C@@H](Cc1c[nH]c2ccccc12)C(=O)N1CCC[C@H]1C(=O)N[C@@H](Cc1c[nH]c2ccccc12)C(=O)N[C@@H](CCCNC(=N)N)C(=O)N[C@@H](CCCNC(=N)N)C(N)=O [L-indolicidin, H2N-ILPWKWPWWPWRR-CONH2]
- survival ([1]; 50 μg/ml, 10 mM sodium phosphate buffer, 1, 2 and 5 minutes, room temperature): 100%
- survival ([1]; 50 μg/ml, 10 mM sodium phosphate buffer, 15 minutes): 19%
- survival reduction ([1]; 50 μg/ml, 10 mM sodium phosphate buffer, 60 min): ~2 logs
- survival ([1]; 50 μg/ml, 10 mM sodium phosphate buffer, 24 hours, room temperature): no apparent survival
- log cell reduction ([1]; 50 μg/ml, 10 mM sodium phosphate buffer, as early as after 1 minute exposure, initial 2.0×10^6 CFU/ml): ~6 log
- survival ([1]; 50 μg/ml, 10 mM sodium phosphate buffer, exposure time 0 hr): 1.2 × 10^6 CFU/ml
- survival ([1]; 50 μg/ml, 10 mM sodium phosphate buffer, exposure time 1 hr): 6.5 × 10^5 CFU/ml
- survival ([1]; 50 μg/ml, 10 mM sodium phosphate buffer, exposure time 2 hr): 1.1 × 10^4 CFU/ml
- survival ([1]; 50 μg/ml, 10 mM sodium phosphate buffer, exposure time 4 hr): 0 CFU/ml
- survival ([1]; 50 μg/ml, 10 mM sodium phosphate buffer, exposure time 6 hr): 0 CFU/ml
- survival ([1]; 50 μg/ml, 10 mM sodium phosphate buffer, exposure time 12 hr): 0 CFU/ml
- survival ([1]; 50 μg/ml, 10 mM sodium phosphate buffer, up to 15 minutes): 100%
- survival [1, 5]: no survival
- viability decrease ([1]; 50 μg/ml, 100 mM sodium phosphate buffer, 1 and 2 minutes): about 1 log
- colonies on plates ([1]; 50 μg/ml, 100 mM sodium phosphate buffer, 15 and 60 minutes): No colonies
- colonies on plate seeded with 0.1 ml undiluted exposure mixture ([1]; 50 μg/ml, 100 mM sodium phosphate buffer, 5 minutes): 34 colonies
- Bacterial growth, Buffer and L-indolicidin 50 μg/ml ([1]; 100 mM sodium phosphate buffer, incubation time 0 hr): 0
- Bacterial growth, Buffer and L-indolicidin 50 μg/ml ([1]; 100 mM sodium phosphate buffer, incubation time 24 hr): 0
- survival ([1]; 50 μ/ml, 10 mM sodium phosphate buffer, after 4 hours exposure): no detectable survival
- survival [2, 5]: no survival
- Bacterial growth, Buffer and L-indolicidin 50 μg/ml ([2]; incubation time 0 hr): 0
- Bacterial growth, Buffer and L-indolicidin 50 μg/ml ([2]; incubation time 24 hr): 0
- deaths or clinical signs of toxicity ([3]; 10, 100 or 1000 μg/mL, BPN-A-amide 30, 300 or 3000 μg/mL): No deaths or biologically significant clinical signs of toxicity
- toxic changes in rabbit eyes (histology) ([3]; 20 μL/rabbit at 10, 100 or 1000 μg/mL, BPN-A-amide at 30, 300 or 3000 μ/mL): No toxic changes
- Solubility in 0.01% acetic acid [4]: went into solution immediately
